In publication PMC10508830 (Antiviral research, 2023):

Target: NA of A/Alabama/03/2020 A(H1N1)pdm09 (H275Y) (Influenza A virus, UniProt A0A0X9QTS2, H275Y)
Format: biochemical
Conditions: for IC50: read-out: Mean IC50 ± SD

Substance	IC50	IC50 fold-change
oseltamivir carboxylate	0.23 µM	–
peramivir	0.0152 µM	15.25 ± 2.11 (254) fold
